US6291532A, “Use of N-aryl-2-hydroxyalkylamides for stimulating or inducing hair growth and/or arresting hair loss” (L'Oreal, priority 1996, dated 2001)
Where two headings read alike, the source gives them in different places.

Experiments:
androgen receptors = molecular target: T1, androgen receptors (Rattus norvegicus, UniProt P15207); test: IC50 of the compounds for their effect on the androgen receptors; assay type: binding; conditions: for affinity for the androgen receptor (in words): summary in words of the table of Example 1
T1 construct: from tissue; host or cells: rat ventral prostate cytosol, inferred from the cited method
T1 sequence (P15207 1-902): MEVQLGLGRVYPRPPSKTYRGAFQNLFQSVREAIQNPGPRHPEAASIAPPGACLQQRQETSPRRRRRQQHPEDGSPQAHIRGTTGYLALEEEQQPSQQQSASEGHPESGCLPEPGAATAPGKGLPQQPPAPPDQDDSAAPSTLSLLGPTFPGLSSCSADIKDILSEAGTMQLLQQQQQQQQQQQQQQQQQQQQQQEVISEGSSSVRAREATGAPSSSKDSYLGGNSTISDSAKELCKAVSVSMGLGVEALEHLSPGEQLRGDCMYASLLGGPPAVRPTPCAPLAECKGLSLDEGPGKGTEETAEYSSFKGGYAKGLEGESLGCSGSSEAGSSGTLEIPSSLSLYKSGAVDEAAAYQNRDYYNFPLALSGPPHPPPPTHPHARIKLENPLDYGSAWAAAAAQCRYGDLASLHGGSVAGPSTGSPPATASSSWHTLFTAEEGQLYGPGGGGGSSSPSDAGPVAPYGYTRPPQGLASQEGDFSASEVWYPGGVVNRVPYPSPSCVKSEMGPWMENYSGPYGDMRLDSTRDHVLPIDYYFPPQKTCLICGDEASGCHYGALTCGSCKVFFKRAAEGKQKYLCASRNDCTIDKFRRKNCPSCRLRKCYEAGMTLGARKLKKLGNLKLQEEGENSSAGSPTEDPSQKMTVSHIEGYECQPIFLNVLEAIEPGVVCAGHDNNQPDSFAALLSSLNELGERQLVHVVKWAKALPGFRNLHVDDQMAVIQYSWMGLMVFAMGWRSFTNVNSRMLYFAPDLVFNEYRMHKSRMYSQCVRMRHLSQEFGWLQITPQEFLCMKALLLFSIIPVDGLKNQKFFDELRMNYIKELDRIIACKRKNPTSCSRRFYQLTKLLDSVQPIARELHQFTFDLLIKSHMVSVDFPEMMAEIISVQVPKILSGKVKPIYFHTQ
Description: (§1) The IC50 corresponds to the concentration which decreases by 50% either an induced pharmacological mechanism, such as muscular contraction,or the attachment of a molecule to its membrane receptor.
In order to determine the IC50 of the compounds for their effect on the androgen receptors, they were tested according to the method of Schilling and Liao ("The Prostate", 1984, 5, 581-588).
(§2) The values are given in μM

potassium channels = test: IC50 of the compounds for their effect on the potassium channels; assay type: biochemical; conditions: for IC50: methods of Newgreen et al., Bray et al. and wickerden et al., concentration which decreases by 50% an induced pharmacological mechanism such as muscular contraction, read-out: IC50 K+ Channels; for opening effect for potassium channels (in words): summary in words of the table of Example 1
Description: as §1
In order to determine the IC50 of the compounds for their effect on the potassium channels, they were tested according to the methods of Newgreen et al. (Br. J. Pharmacol., 1990, 100, 605-613), Bray et al. (Arch. Pharmacol., 1991, 344, 351-359) and wickerden et al. (Br. J. Pharmacol., 1991, 103, 1148-1152).
as §2

[1] = method of Schilling and Liao, concentration which decreases by 50% the attachment of a molecule to its receptor, read-out: IC50 Androgen receptors

SMILES	IC50 (androgen receptors) [nM]	affinity for the androgen receptor (in words) (androgen receptors)	IC50 (potassium channels) [nM]	opening effect for potassium channels (in words) (potassium channels)	IC50 (androgen receptors; [1]) [nM]
CC(O)(C(=O)Nc1ccc(C#N)c(C(F)(F)F)c1)C(F)(F)F (stereo not shown) [A, N-(4-cyano-3-(trifluoromethyl)phenyl)-3,3,3-trifluoro-2-hydroxy-2-methylpropionamide]	1000	good affinity	500	excellent opening effect	–
CC(O)(C(=O)Nc1ccc(C#N)c(Cl)c1)C(F)(F)F (stereo not shown) [B, N-(3-chloro-4-cyanophenyl)-3,3,3-trifluoro-2-hydroxy-2-methylpropionamide]	500	good affinity	100	excellent opening effect	–
CC(O)(C(=O)Nc1ccc(Cl)c(Cl)c1)C(F)(F)F (stereo not shown) [C, N-(3,4-dichlorophenyl)-3,3,3-trifluoro-2-hydroxy-2-methylpropionamide]	–	good affinity	2000	excellent opening effect	1000
CC(O)(C(=O)Nc1ccc(C#N)c(C(F)(F)F)c1)c1ccccc1 (stereo not shown) [D, N-(4-cyano-3-(trifluoromethyl)phenyl)-2-hydroxy-2-phenylpropionamide]	3000	good affinity	3000	excellent opening effect	–
CC(O)(C(=O)Nc1ccc(C#N)c(C#N)c1)C(F)(F)F (stereo not shown) [E, N-(3,4-dicyanophenyl)-3,3,3-trifluoro-2-hydroxy-2-methylpropionamide]	10000	good affinity	1000	excellent opening effect	–
CC(O)(C(=O)Nc1ccc([N+](=O)[O-])c(C(F)(F)F)c1)C(F)(F)F (stereo not shown) [F, N-(4-nitro-3-(trifluoromethyl)phenyl)-3,3,3-trifluoro-2-hydroxy-2-methylpropionamide, reference compound]	–	poor affinity	> 10000	poor opening effect	> 10000
CC(O)(C(=O)Nc1ccc(C#N)cc1)C(F)(F)F (stereo not shown) [G, N-(4-cyanophenyl)-3,3,3-trifluoro-2-hydroxy-2-methylpropionamide, reference compound]	–	poor affinity	10000	poor opening effect	> 10000
